According to ChEMBL document CHEMBL3045140, “Synthesis, docking studies and antioxidant activity of some chalcone and aurone derivatives” (Med Chem Res, 2013):
Values after ≈ are worked out from the molar mass of the structure shown.

What was measured:
Assay type in all cases: functional
[1] = Antioxidant activity assessed as iron chelating activity after 10 min by spectrophotometeric analysis
[2] = Antioxidant activity assessed as H2O2 scavenging activity after 10 min by spectrophotometeric analysis
[3] = Antioxidant activity assessed as reduction of Fe3+ to Fe2+ after 20 min by spectrophotometeric analysis
[4] = system: Radical scavenging activity; assay: Antioxidant activity assessed as DPPH free radical scavenging activity after 30 min by spectrophotometeric analysis

SMILES	IC50 [1] [µg/mL]	IC50 [2] [µg/mL]	IC50 [3] [µg/mL]	IC50 [4] [µg/mL]	Activity [2]	Activity [4]
CN(C)c1ccc(/C=C2\Oc3cc(O)ccc3C2=O)cc1	179.33 (≈ 637 µM)	193.91 (≈ 689 µM)	70.1 (≈ 249 µM)	109.92 (≈ 391 µM)	Dose-dependent effect	Dose-dependent effect
O=C1/C(=C/c2ccc(Cl)cc2)Oc2cc(O)ccc21 [6-HYDROXY-4'-CHLORO AURONE]	179.18 (≈ 657 µM)	178.13 (≈ 653 µM)	188.31 (≈ 691 µM)	266.12 (≈ 976 µM)	Dose-dependent effect	Dose-dependent effect
O=C1O[C@H]([C@@H](O)CO)C(O)=C1O [ASCORBIC ACID]	126.12 (≈ 716 µM)	445.92 (≈ 2530 µM)	53.24 (≈ 302 µM)	98.77 (≈ 561 µM)		
O=C(/C=C/c1ccc(Cl)cc1)c1ccc(O)cc1O	159.97 (≈ 582 µM)	129.02 (≈ 470 µM)	155.87 (≈ 567 µM)	264.95 (≈ 964 µM)	Dose-dependent effect	Dose-dependent effect
CN(C)c1ccc(/C=C2\Oc3ccc(O)cc3C2=O)cc1	149.98 (≈ 533 µM)	174.07 (≈ 619 µM)	64.16 (≈ 228 µM)	243 (≈ 864 µM)	Dose-dependent effect	Dose-dependent effect

Now from value to molecule, other results behind:

IC50 [1] [µg/mL]	IC50 [2] [µg/mL]	IC50 [3] [µg/mL]	IC50 [4] [µg/mL]	SMILES	Activity [2]	Activity [4]
213.83 (≈ 717 µM)	248.16 (≈ 832 µM)	168.23 (≈ 564 µM)	173.29 (≈ 581 µM)	COc1ccc(/C=C2\Oc3cc(O)ccc3C2=O)cc1OC	Dose-dependent effect	Dose-dependent effect
90.81 (≈ 321 µM)	153.85 (≈ 543 µM)	47.79 (≈ 169 µM)	24.32 (≈ 85.8 µM)	CN(C)c1ccc(/C=C/C(=O)c2cc(O)ccc2O)cc1	Dose-dependent effect	Dose-dependent effect
140.16 (≈ 495 µM)	135.88 (≈ 480 µM)	53.6 (≈ 189 µM)	65.8 (≈ 232 µM)	CN(C)c1ccc(/C=C/C(=O)c2ccc(O)cc2O)cc1	Dose-dependent effect	Dose-dependent effect
166.73 (≈ 555 µM)	70.1 (≈ 233 µM)	134.45 (≈ 448 µM)	35.2 (≈ 117 µM)	COc1ccc(/C=C/C(=O)c2ccc(O)cc2O)cc1OC	Dose-dependent effect	Dose-dependent effect
159.22 (≈ 530 µM)	89.59 (≈ 298 µM)	111.79 (≈ 372 µM)	132.22 (≈ 440 µM)	COc1ccc(/C=C/C(=O)c2cc(O)ccc2O)cc1OC	Dose-dependent effect	Dose-dependent effect
185.05 (≈ 620 µM)	206.57 (≈ 693 µM)	151.43 (≈ 508 µM)	222.19 (≈ 745 µM)	COc1ccc(/C=C2\Oc3ccc(O)cc3C2=O)cc1OC [5-HYDROXY-3',4'-DIMETHOXY AURONE]	Dose-dependent effect	Dose-dependent effect
